{"source": "paper PMC8989062", "about": "(Journal of medicinal chemistry, 2022)", "key": {"HIV": {"tested_on": "HIV", "settings": "cited from earlier work"}, "[1]": {"tested_on": "BET BD1 and BD2 bromodomains", "settings": "SPR; cited from earlier work"}, "[2]": {"tested_on": "H3K122Ac (HAT activity of BRD4)", "test": "immunofluorescence staining of H3K122Ac in lung sections of mice", "settings": "n = 5"}, "[3]": {"tested_on": "H3K122Ac (HAT activity of BRD4)", "test": "immunofluorescence staining of H3K122Ac in hSAECs", "format": "cell-based, human"}, "IL-6": {"tested_on": "IL-6", "test": "poly", "settings": "for activity at 10 µM: Homo sapiens, read-out: Residual activity rate, IL-6 (%)"}, "[4]": {"tested_on": "poly(I:C)-induced BRD4-dependent acute airway inflammation", "test": "murine model of poly", "format": "in vivo, C57BL/6J mice", "settings": "mice, 10 mg/kg po"}, "[5]": {"test": "in vivo PK profiles in rats", "settings": "rat"}, "BRD4 BD1 E151A mutant": {"biological_target": "BRD4 BD1 E151A mutant (Homo sapiens, UniProt O60885, E151A)", "test": "thermal shift assay", "settings": "TSA, 5 μM protein"}, "CIG5": {"tested_on": "CIG5", "test": "poly", "settings": "Homo sapiens, read-out: Residual activity rate, CIG5 (%)"}, "[6]": {"settings": "cited from earlier work"}, "[7]": {"settings": "in vivo; cited from earlier work"}}, "note": "Entries after “also recorded” stand apart in the source; their conditions may differ."}
{"smiles": "O=C(Nc1ccc(C(F)(F)F)cc1)Nc1ccc(S(=O)(=O)N2CCC[C@H]2C(=O)Nc2ccccc2)cc1", "note": "[Compound 45, (S)-N-Phenyl-1-((4-(3-(4-(trifluoromethyl)phenyl)ureido)phenyl)-sulfonyl)pyrrolidine-2-carboxamide]", "values": [{"measurement": "effect on HIV", "setting": "HIV", "value": "epigenetically suppress HIV"}]}
{"smiles": "CC(=O)Nc1c(F)cc(C(=O)N[C@H]2CC[C@H](O)CC2)cc1O[C@@H](C)c1ccccc1", "note": "[GSK046]", "values": [{"measurement": "selectivity BET BD2 over BD1", "setting": "[1]", "value": "> 300", "unit": "fold"}]}
{"smiles": "O=C(Nc1ccc(C(F)(F)F)cc1)Nc1ccc(S(=O)(=O)N2CCC[C@H]2CN2CCC(O)CC2)cc1", "note": "[Compound 53, (S)-1-(4-((2-((4-Hydroxypiperidin-1-yl)methyl)pyrrolidin-1-yl)-sulfonyl)phenyl)-3-(4-(trifluoromethyl)phenyl)urea]", "values": [{"measurement": "poly(I:C)-induced H3K122Ac accumulation in lung tissue of mice", "setting": "[2]", "value": "significantly blocked"}, {"measurement": "poly(I:C)-induced H3K122Ac accumulation in hSAECs", "setting": "[3]", "value": "significantly blocked"}, {"measurement": "fold more potent than compound 1, IL-6", "setting": "IL-6; ratio of IC50 values", "value": 15.9, "unit": "fold"}, {"measurement": "fold more potent than compound 3, IL-6", "setting": "IL-6; ratio of IC50 values", "value": 4.8, "unit": "fold"}]}
{"smiles": "O=C(Nc1ccc(C(F)(F)F)cc1)Nc1ccc(S(=O)(=O)N2CCC[C@H]2CO)cc1", "note": "[Compound 50, (S)-1-(4-((2-(Hydroxymethyl)pyrrolidin-1-yl)sulfonyl)phenyl)-3-(4 (trifluoromethyl)phenyl)urea]", "values": [{"measurement": "activity at 10 µM", "setting": "IL-6", "value": "1.71 ± 0.13", "unit": "%"}]}
{"smiles": "O=C(Nc1ccc(C(F)(F)F)cc1)Nc1ccc(S(=O)(=O)N2CCC[C@H]2CN2CCOCC2)cc1", "note": "[Compound 52, (S)-1-(4-((2-(Morpholinomethyl)pyrrolidin-1-yl)sulfonyl)phenyl)-3-(4-(trifluoromethyl)phenyl)urea]", "values": [{"measurement": "poly(I:C)-induced BRD4-dependent acute airway inflammation, overall", "setting": "[4]", "value": "more efficacious"}, {"measurement": "poly(I:C)-induced neutrophilic inflammation around small- and medium-sized airways (histology)", "setting": "[4]", "value": "completely inhibited"}, {"measurement": "inflammatory cytokines (IL-6, KC, MCP-1, RANTES) in BALF", "setting": "[4]; n = 5, 10 mg/kg", "value": "significantly attenuated; also recorded: blocked"}, {"measurement": "inflammatory gene expression (IL-6, KC, ISG54, CIG5) in lung tissues", "setting": "[4]; n = 5, 10 mg/kg", "value": "significantly attenuated; also recorded: blocked"}, {"measurement": "total cells and neutrophils in BALF", "setting": "[4]; n = 5, 10 mg/kg", "value": "significantly attenuated; also recorded: blocked"}, {"measurement": "improvement of oral bioavailability compared to compound 7", "setting": "[5]", "value": "approximately 30 fold"}, {"measurement": "poly(I:C)-induced H3K122Ac accumulation in lung tissue of mice", "setting": "[2]", "value": "significantly blocked"}, {"measurement": "poly(I:C)-induced H3K122Ac accumulation in hSAECs", "setting": "[3]", "value": "significantly blocked"}, {"measurement": "activity at 10 µM", "setting": "IL-6", "value": "0.35 ± 0.03", "unit": "%"}, {"measurement": "binding to E151A mutant of BRD4 BD1 compared with WT", "setting": "BRD4 BD1 E151A mutant", "value": "complete loss of its binding affinity"}, {"measurement": "activity at 10 µM", "setting": "CIG5", "value": "0.34 ± 0.025", "unit": "%"}]}
{"smiles": "Cc1sc2c(c1C)C(c1ccc(Cl)cc1)=N[C@@H](CC(=O)OC(C)(C)C)c1nnc(C)n1-2", "note": "[Compound 3, reference compound]", "values": [{"measurement": "poly(I:C)-induced H3K122Ac accumulation in lung tissue of mice", "setting": "[2]", "value": "blocked"}, {"measurement": "poly(I:C)-induced H3K122Ac accumulation in hSAECs", "setting": "[3]", "value": "blocked"}, {"measurement": "binding to E151A mutant of BRD4 BD1 compared with WT", "setting": "BRD4 BD1 E151A mutant", "value": "maintained a similar binding activity"}, {"measurement": "effect on latent HIV", "setting": "HIV", "value": "activate latent HIV"}]}
{"smiles": "Cc1cc(/N=N/c2ccc(S(=O)(=O)NC3CCCC3)cc2)c(N)cc1O", "note": "[Compound 7]", "values": [{"measurement": "oral bioavailability", "setting": "[6]", "value": 0.5, "unit": "%"}, {"measurement": "AUC0–t", "setting": "[6]; oral dose of 20 mg/kg", "value": 104, "unit": "ng·h/mL"}, {"measurement": "Cmax", "setting": "[6]; oral dose of 20 mg/kg", "value": 36, "unit": "ng/mL"}]}
{"smiles": "COCc1nc2cnc3cc(-c4c(C)noc4C)c(OC[C@H]4CCNC4)cc3c2n1[C@H](C)c1ccccc1", "note": "[GSK778]", "values": [{"measurement": "selectivity BET BD1 over BD2", "setting": "[1]", "value": "> 130", "unit": "fold"}]}
{"smiles": "COc1cc(OC)c2c(=O)cc(-c3cc(C)c(OC[C@H](O)CN4CCN(C)CC4)c(C)c3)oc2c1", "note": "[ZL0516, (R)-2-(4-(2-hydroxy-3-(4-methylpiperazin-1-yl)propoxy)-3,5-dimethylphenyl)-5,7-di-methoxy-4H-chromen-4-one]", "values": [{"measurement": "oral bioavailability F", "setting": "[7]", "value": 35, "unit": "%"}]}
